Experimental findings from PMC12394750, “2H-1,4-Benzoxazin-3(4H)-one linked 1,2,3-triazole derivatives and their study on inducing DNA damage in tumor cells” (Frontiers in Pharmacology, 2025) are described below.

Structures are written as SMILES.

Broadly, the viability is a read-out of living cells in per cent, often relative to untreated cells. What is called IC50 is the concentration that inhibits the measured activity by half. High values mean weaker potency, low ones greater potency.

A short description of series [1]: CCK-8 cell viability, L02. The following applies: human, L02 normal liver cells. In kind it is cell-based.
Another series has as its system MCF-7 (breast cancer). Nature of the series: CCK-8 cell viability, MCF-7. The following applies: Homo sapiens, MCF7, 72 h. In kind it is cell-based. The method, then: (§1) To assess the cytotoxic potential of the newly synthesized compounds c1–c20, a panel of human tumor cell lines—including Huh-7 (hepatocellular carcinoma), MCF-7 (breast cancer), and A549 (lung cancer)—was treated with each compound at a concentration of 50 μM for 72 h. Cell viability and cytotoxicity were evaluated using the CCK-8 assay.
(§2) Cells were cultured in DMEM or RPMI 1640 medium with 10% FBS and 1% penicillin/streptomycin at 37 °C and 5% CO2. A CCK-8 assay was performed with several human cancer cell lines, including A549, Huh-7, MCF-7, HCT-116, and SKOV3, according to the instructions. Cells were plated at a density of 1,000–3,000 cells per well in a 96-well plate. After 24-h incubation, cells were treated with 40 μM compounds for 48 h or 50 μM compounds for 72 h. Cell viability was measured by adding 10 μL per well of CCK-8 reagent, which was dissolved in the cell culture medium, for 1 hour. Absorbance was taken at 450 nm using a microplate reader. The IC50 values of the compounds were further determined. Cells were seeded in a 96-well plate at a density of 1 × 10^3 cells/well. After adhering overnight, cells treated with […] concentrations (10 μM, 20 μM, 40 µM, or 80 μM) were used to draw the dose–response curve, and IC50 values were calculated by GraphPad Prism software. The CCK-8 assay was performed in triplicate, and each experiment was repeated at least three times. The results were expressed as mean ± SEM, and P < 0.05 was considered statistically significant.

Series [2] relates to Huh-7 (hepatocellular carcinoma). Description: CCK-8 cell viability / IC50, Huh-7. In kind it is cell-based, human. The note with it: Homo sapiens, Huh-7, 72 h; for viability at 50 µM: CCK-8; for IC50: CCK-8 dose-response. How it is done:
as §1, §2

The subject of series [3] is Huh-7 cells. Description: Annexin V-FITC/PI apoptosis flow cytometry. In kind it is cell-based, human. The following applies: Huh-7, 10, 20 or 30 μM, 72 h. How it is done:
Apoptosis, a programmed form of cell death, was investigated to understand the molecular mechanisms behind the anti-proliferative effects of the novel compounds. Huh-7 cells were treated with various concentrations (10 μM, 20 μM, or 30 μM) of compounds c5, c14, c16, and c18 for 72 h. The cells were then stained with Annexin V-FITC and propidium iodide (PI) and analyzed by flow cytometry to determine the proportion of apoptotic cells.
Cells were plated at a density of 3 × 10^5 cells per well in a 6-well plate. Different concentrations of compounds were added to cells for 72 h. Then, cells were collected and washed with PBS. Annexin V-FITC and propidium iodide were then added to stained cells for 20 min. Apoptotic cells were quantified by a flow cytometer, and raw data were further analyzed by Flow Jo software v10. Values were expressed as mean ± SEM. Statistical significance was assessed using one-way ANOVA followed by the Student–Newman–Keuls test. P < 0.05 was considered statistically significant. Data were visualized using GraphPad Prism.

For series [4], the system named is Huh-7 cells. Nature of the series: Autophagy staining assay (MDC probe). Format: cell-based, human. The note with it: Huh-7, 10, 20 or 30 μM, 24 h; especially at doses lower than 30 μM. The method, then:
To further evaluate the role of 2H-1,4-benzoxazin-3(4H)-one linked 1,2,3-triazole derivatives in regulating autophagy, Huh-7 cells were treated with different doses (10 μM, 20 μM, or 30 μM) of compounds c5, c14, c16, and c18 for 24 h, and the autophagosome was detected by the MDC (monodansylcadaverine) probe. MDC could specifically label autophagosomes, which will show as green, and we can directly observe them using a fluorescence microscope.
FIGURE 8 Compounds c5, c14, c16, and c18 affected autophagy. Autophagy staining in Huh-7 cells treated with compounds c5, c14, c16, and c18 (10 μM, 20 μM, or 30 μM).
Huh-7 cells were seeded in a 96-well plate at a density of 2 × 10^3 cells/well. Cells were treated with compounds at the doses of 0 μM, 5 μM, 10 μM, 20 μM, or 30 μM. After 24 h of treatment, the medium was removed, and cells were stained with monodansylcadaverine for 1 h in the dark at 37 °C. The cells were photographed with confocal microscopy.

Series [5] concerns Huh-7 cells. Nature of the series: RT-PCR gene expression. Format: cell-based, human. The note with it: Huh-7, 72 h; for ATG7 gene expression / H2AX gene expression / TNF-α gene expression / p53 gene expression / Keap1 gene expression / p21 gene expression: c5, c14, c16 30 μM; for Bax gene expression / Bcl2 gene expression: c14, c16 30 μM; for Caspase-7 gene expression: c5, c14 30 μM. The method, then: To investigate the molecular mechanisms underlying the anti-tumor activity of 2H-1,4-benzoxazin-3(4H)-one linked 1,2,3-triazole derivatives, we examined the expression of key genes involved in cell growth and death, including those related to DNA damage, oxidative stress, apoptosis, and autophagy. Huh-7 cells were treated with compounds c5 (30 μM), c14 (30 μM), c16 (30 μM), and c18 (20 μM) for 72 h, followed by RT-PCR analysis.
FIGURE 5 Compounds c5, c14, c16, and c18 increased the gene expression. (A–D) Huh-7 cells were treated with different concentrations of compounds c5, c14, c16, and c18 (20 or 30 μM) for 72 h. Gene expressions were detected by RT-PCR. Data were presented as means ± SEM; *P < 0.05.
Huh-7 cells were seeded in a 12-well plate and treated with compounds for 72 h. Total RNA was extracted using TRIzol reagent (Ambion, United States), and RT-PCR was performed using PowerUp™ SYBR™ Green Master Mix (ABI, United States). Gene expression was normalized to GAPDH. Values were expressed as mean ± SEM. Statistical significance was assessed using a two-tailed Student’s t-test. P < 0.05 was considered statistically significant.

With `O=C1COc2cc(NC(=O)c3cccc(-c4cn(Cc5ccc(C(F)(F)F)cc5)nn4)c3)ccc2N1` [compound c16, N-(3-oxo-3,4-dihydro-2H-benzo[b][1,4]oxazin-7-yl)-3-(1-(4-(trifluoromethyl)benzyl)-1H-1,2,3-triazol-4-yl)benzamide], the viability at 72 h, 50 µM in series [1] was 117 ± 1.41%. For the same compound, the viability at 50 µM in the series with MCF-7 (breast cancer) is 101.6 ± 0.92%. Also, in series [2], the viability at 50 µM stood at 17.7 ± 1.27% and 31.87 ± 0.04 µM corresponded to half-maximal inhibition (IC50). In the series on Huh-7 cells [3], the “Apoptosis (proportion of apoptotic cells)” value is “significant, dose-dependent increases”. Also, the “Autophagosomes (MDC probe)” value in the series on Huh-7 cells [4] is on record as “increased”. Besides, in the series on Huh-7 cells [5] (c18 20 μM), the ATG7 gene expression result is reported as “downregulated”, the H2AX gene expression entry is “markedly upregulated”, the TNF-α gene expression entry is given as “markedly upregulated” and the p53 gene expression entry is given as “markedly upregulated”. In addition, in the series with Huh-7 cells [5], the Bax gene expression entry is listed as “elevated” and the Bcl2 gene expression result was “elevated”.
Take `O=C1COc2cc(NC(=O)c3cccc(-c4cn(Cc5ccc(Cl)cc5)nn4)c3)ccc2N1` [compound c18, 3-(1-(4-chlorobenzyl)-1H-1,2,3-triazol-4-yl)-N-(3-oxo-3,4-dihydro-2H-benzo[b][1,4]oxazin-7-yl)benzamide]: the viability at 72 h, 50 µM in series [1] was 117 ± 1.27%. In addition, in the series on MCF-7 (breast cancer), the viability at 50 µM was 103 ± 1.83%. Also, in series [2], the viability at 50 µM turned out to be 17.1 ± 0.43% and the concentration for half-maximal inhibition (IC50) turned out to be 19.05 ± 0.12 µM. The “Apoptosis (proportion of apoptotic cells)” value with Huh-7 cells [3] is “significant, dose-dependent increases”. Besides, the “Autophagosomes (MDC probe)” value in the series with Huh-7 cells [4] is “increased”. In addition, in the series with Huh-7 cells [5] (c18 20 μM), the ATG7 gene expression result was “downregulated”, the Keap1 gene expression entry is “dramatically upregulated”, the p21 gene expression entry is recorded as “dramatically upregulated” and the apoptosis-related gene expression result is given as “no changes”.
Consider `O=C1COc2cc(NC(=O)c3cccc(-c4cn(Cc5cccc(F)c5)nn4)c3)ccc2N1` [compound c14, 3-(1-(3-fluorobenzyl)-1H-1,2,3-triazol-4-yl)-N-(3-oxo-3,4-dihydro-2H-benzo[b][1,4]oxazin-7-yl)benzamide], for which, in series [1], the viability at 72 h, 50 µM turned out to be 116 ± 1.18%. Besides, the viability at 50 µM in the series on MCF-7 (breast cancer) is 106 ± 1.48%. For the same compound, in series [2], the viability at 50 µM came out at 18.1 ± 0.76% and the IC50 was 32.6 ± 1.23 µM. Besides, the “Apoptosis (proportion of apoptotic cells)” value with Huh-7 cells [3] is “significant, dose-dependent increases”. For the same compound, the “Autophagosomes (MDC probe)” value in the series with Huh-7 cells [4] is “increased”. In addition, in the series on Huh-7 cells [5], the Caspase-7 gene expression entry is given as “no significant changes”, the Bax gene expression entry is reported as “no significant changes” and the Bcl2 gene expression result is given as “significantly increased”. Besides, in the series on Huh-7 cells [5] (c18 20 μM), the H2AX gene expression result is on record as “significantly upregulated”, the Keap1 gene expression entry is listed as “significantly increased”, the p21 gene expression entry is given as “unchanged or downregulated” and the p53 gene expression entry is listed as “unchanged or downregulated”. In the series with Huh-7 cells [5] (c14 30 μM), the autophagy-related gene expression entry is “No differences” and the caspase-6 gene expression result is “no significant changes”.
In the case of `O=C1COc2cc(NC(=O)c3cccc(-c4cn(Cc5ccc(Br)cc5)nn4)c3)ccc2N1` [compound c5, 3-(1-(4-bromobenzyl)-1H-1,2,3-triazol-4-yl)-N-(3-oxo-3,4-dihydro-2H-benzo[b][1,4]oxazin-7-yl)benzamide], the viability at 72 h, 50 µM in series [1] amounted to 101 ± 3.35%. The viability at 50 µM with MCF-7 (breast cancer) is 107 ± 2.85%. Besides, in series [2], the viability at 50 µM came to 15.1 ± 0.43% and inhibition was half-maximal at 28.5 ± 0.29 µM (IC50). Also, the “Apoptosis (proportion of apoptotic cells)” value with Huh-7 cells [3] is listed as “significant, dose-dependent increases”. In the series with Huh-7 cells [4], the “Autophagosomes (MDC probe)” value was “increased”. Further, in the series on Huh-7 cells [5] (c5 30 μM), the Atg5 gene expression result was “remained unchanged”, the Gpx4 gene expression entry is recorded as “either downregulated or unchanged” and the Nrf2 gene expression entry is on record as “either downregulated or unchanged”. Further, in the series with Huh-7 cells [5], the Caspase-7 gene expression entry is reported as “notably increased”. In the series on Huh-7 cells [5] (c18 20 μM), the ATG7 gene expression result was “downregulated”, the H2AX gene expression result is “no significant changes”, the Keap1 gene expression result was “significantly upregulated” and the TNF-α gene expression result is given as “significantly upregulated”. Also, in the series with Huh-7 cells [5] (c18 20 μM), the p21 gene expression result is given as “no significant changes” and the p53 gene expression result is given as “no significant changes”.
